Results from patent US8980907B2, “Dendrimer conjugates” (The Regents of the University of Michigan, priority 2008, dated 2015).

Key:
solid tumors = conditions: cited from earlier work
porcine liver esterase = assay: In vitro release of morphine from pro-drug with porcine liver esterase (HPLC); assay type: in vitro ADME; conditions: 20 μM, porcine liver esterase 0.01 U, phosphate buffer pH 7.0, 2 and 16 hours
Experimental: [drawing 26] was incubated with porcine liver esterase (Sigma, 0.01 U) in 20 mM phosphate buffer pH 7.0 for 2 and 16 hours. At the end of the time periods the samples were frozen at −20° C. and were thawed prior to loading onto the HPLC column.

Male Hartley guinea pigs = assay: Randall & Selitto paw pressure analgesia test in guinea pig; assay type: in vivo; conditions: pain threshold at 60, 150, 240 and 360 min after administration
Excerpt: Male Hartley guinea pigs (375-475 g) from Elm Hill labs were allowed free access to food and water before being used in the testing of analgesia effects free morphine, morphine complex, and morphine prodrug A complex
The Randall & Selitto test apparatus (Harvard Instruments) is used to measure analgesia and is based on determination of the animal threshold response to pain induced in the paw by the application of a uniformly increasing pressure from a conical tip upon the dorsal surface of the rear paw which rests on a platform. The weight in grams is taken upon withdrawal of the animals paw from the platform with five repeated measurements of pain threshold recorded for each time point (control, 60, 150, 240, and 360 min) after drug administration. Values are normalized to control and the mean±SEM for each time point are recorded. To reduce tissue damage to the animal a weight limit is used for all animals.

Row | Compound | in vivo activity in solid tumor models (solid tumors) | release of morphine from pro-drug (porcine liver esterase) | analgesia / release of morphine in vivo (Male Hartley guinea pigs)
1 | N.N.[Cl][Pt][Cl] [cisplatin] | no effect | – | –
2 | CN1CC[C@]23c4c5ccc(OC(=O)CCC(=O)OC(C)(C)C)c4O[C@H]2[C@@H](O)C=C[C@H]3[C@H]1C5 [Pro-drug A] | – | sustained release of morphine | sustained release of morphine
